One series concerns the target RET kinase (Homo sapiens, UniProt P07949). Nature of the series: In-vitro enzyme activity test, RET kinase. The format is biochemical. Conditions: ATP 20 μM; 10 concentrations 3 μM to 0.152 nM. Here is the method:
(§1) The enzyme activity was detected by a Z′-LYTE™ kinase test, and inhibitory effects of the compounds onRET and RET (V804M) kinases were evaluated with an ICs value of each compound as an index.
(§2) The compounds used for RET and RET (V804M) kinase tests were diluted 3-fold, in 10 concentration gradients ranging from 3 μM to 0.152 nM; and the content of DMSO in detection reaction was 1%.
(§3) Basic reaction buffer, 20 mM 4-(2-hydroxyethyl)piperazine-1-ethanesulfonic acid (Hepes) buffer (pH 7.5), 10 mM MgCl2. 1 mM 1,2-bis[2-[bis(carboxymethyl)amino]ethoxy]ethane (EGTA), 0.02% polyoxyethylene lauryl ether (Brij35), 0.02 mg/mL bovine serum albumin, 0.1 mM of Na3VO4, 2 mM dithiothreitol (DTT) and 1% DMSO.
(§4) The compounds to be tested were dissolved in a 100% DMSO system to be diluted to 10 mM for further use. The solution was diluted by using Integra Viaflo Assist.
(§5) Test conditions: concentrations of RET kinase, peptide substrate CHKtide and adenosine triphosphate (ATP) were […], 1000 μM and 20 μM, respectively, and concentrations of RET (V804M) kinase, substrate peptide and ATP were […], 1000 μM and 30 μM, respectively.
(§6) Reaction process: compound solutions of different concentrations were added to a kinase/peptide solution prepared according to the test conditions, the obtained solution was incubated at room temperature for 20 minutes, and then 33P-ATP of corresponding concentrations were added, and the obtained solution was incubated at room temperature for 120 minutes. The radioactivity was detected by a filter-binding method.
(§7) The reaction was terminated by adding phosphoric acid (concentration, 0.5%) into a kinase reaction solution, and plate reading was carried out with an Envision instrument.
(§8) Data were converted into phosphorylation rate and inhibition rate, and the parametric curve was fitted by using GraphPad Software to obtain IC50 data of the compounds.

Series [1] relates to Ba/F3-CCDC6-RET cell allograft tumor model. Nature of the series: Tumor growth inhibition (TGI) in Ba/F3-CCDC6-RET cell allograft tumor model. The format is in vivo, BALB/c nude female mouse. Here is the method:
Ba/F3-CCDC6-RET cell line was cultured in a 1640 medium (Biological Industries)+10% fetal bovine serum (BI)+1% Penicillin Streptomycin solution (Coring, USA) at 37° C. in a 5% CO2 incubator, with passage treatment twice a week Cells were collected when the cell saturation was 80%-90%, subjected to cell counting, and then inoculated subcutaneously into the right armpit of each BALB/c nude female mouse (6-8 weeks old). After inoculation, tumor growth was observed day by day. When the average tumor volume reached 165.77 mm^3, mice were randomly divided into groups according to the tumor volume, with 6 mice in each group, and then the mice were administrated with drug.
Health status and death situation of the mice were checked every day. In addition, the mice were examined regularly, including tumor growth, activity ability, diet, weight, eyes, hair and other abnormal behaviors, and tumor volume and weight were measured twice a week (on Tuesday and Friday).
Inhibitory effects of the compounds on tumor growth were evaluated according to the relationship between tumor volume and time. The tumor volume was measured by a vernier caliper, with the formula being TV=0.5a×b^2, wherein “a” was the long diameter of the tumor and “b” was the short diameter of the tumor. TGI was calculated by the difference between the median tumor volume of mice in the solvent group and the median tumor volume of mice in the drug group, and expressed as the percentage of median tumor volume in the solvent control group.
TGI was calculated by the following formula: TGI(TGI(%)=[1−(T23−T0)/(V23−V0)]×100)
Data were expressed by Means±Standard Error (Mean±SE), unless otherwise stated. The one way ANOVA test was used to compare whether the difference between the tumor volume in the treatment group and the tumor volume in the control group is statistically significant. P<0.05 was considered as statistically significant. The 5% DMSO+10% polyoxyl 15 hydroxystearate (Solutol)+85% 120 was used as the negative control.

The next series deals with RET (V804M) kinase (Homo sapiens, UniProt P07949, V804M). Nature of the series: In-vitro enzyme activity test, RET (V804M) kinase. The format is biochemical. Conditions: ATP 30 μM; 10 concentrations 3 μM to 0.152 nM. The protocol:
as §1, §2, §3, §4, §5, §6, §7, §8

A short description of series [2]: Pharmacokinetic evaluation in mice (IV and PO). Format: in vivo. Conditions: mouse, plasma, female Balb/c mice; for bioavailability: peros (PO) 2 mg/kg vs IV 0.2 mg/kg, read-out: F (bioavailability). The protocol: Experiment process: 0.1 mg/ml of the clear solution of each test compound in the corresponding solvents (as shown in Table 9) was injected into female Balb/c mice (fasting overnight. 7-9 weeks old) via the tail vein at a dose of […]. Blood samples ([…]) were collected from the jugular vein or the tail vein at the following time points: 0.0833 hour, 0.25 hour, 0.5 hour, 1.0 hour, 2.0 hours, 4.0 hours. 8.0 hours and 24 hours after intravenous administration. 0.2 mg/ml of the test compounds suspended in the corresponding solvents (as shown in Table 9) were given to the female Balb/c mice (fasting overnight. 7-9 weeks old) by gavage at a dose of 2 mg/kg. Blood samples (30 μL) were collected from the jugular vein or the tail vein of the female Balb/c mice at the following time points: 0.0833 hour, 0.25 hour, 0.5 hour, 1.0 hour, 2.0 hours, 4.0 hours, 6.0 hours, 8.0 hours and 24 hours after oral administration. The blood samples were placed in anticoagulant tubes containing EDTA-K2, and centrifuged to separate plasma. The plasma concentration was determined by LC-MS/MS, and a WinNonlin™ Version 6.3 pharmacokinetic software (Pharsight, Mountain View, CA) was used to calculate related pharmacokinetic parameters by a linear-log trapezoidal method in a non-compartmental model. [table]

Where [3] appears, read: 10 mg/kg (D0-D13)/5 mg/kg (D14-D17)/2,5 mg/kg (D18-D28) BID.

SMILES strings stand for the structures.

RET (V804M) kinase, sequence (P07949 29-1114 V804M): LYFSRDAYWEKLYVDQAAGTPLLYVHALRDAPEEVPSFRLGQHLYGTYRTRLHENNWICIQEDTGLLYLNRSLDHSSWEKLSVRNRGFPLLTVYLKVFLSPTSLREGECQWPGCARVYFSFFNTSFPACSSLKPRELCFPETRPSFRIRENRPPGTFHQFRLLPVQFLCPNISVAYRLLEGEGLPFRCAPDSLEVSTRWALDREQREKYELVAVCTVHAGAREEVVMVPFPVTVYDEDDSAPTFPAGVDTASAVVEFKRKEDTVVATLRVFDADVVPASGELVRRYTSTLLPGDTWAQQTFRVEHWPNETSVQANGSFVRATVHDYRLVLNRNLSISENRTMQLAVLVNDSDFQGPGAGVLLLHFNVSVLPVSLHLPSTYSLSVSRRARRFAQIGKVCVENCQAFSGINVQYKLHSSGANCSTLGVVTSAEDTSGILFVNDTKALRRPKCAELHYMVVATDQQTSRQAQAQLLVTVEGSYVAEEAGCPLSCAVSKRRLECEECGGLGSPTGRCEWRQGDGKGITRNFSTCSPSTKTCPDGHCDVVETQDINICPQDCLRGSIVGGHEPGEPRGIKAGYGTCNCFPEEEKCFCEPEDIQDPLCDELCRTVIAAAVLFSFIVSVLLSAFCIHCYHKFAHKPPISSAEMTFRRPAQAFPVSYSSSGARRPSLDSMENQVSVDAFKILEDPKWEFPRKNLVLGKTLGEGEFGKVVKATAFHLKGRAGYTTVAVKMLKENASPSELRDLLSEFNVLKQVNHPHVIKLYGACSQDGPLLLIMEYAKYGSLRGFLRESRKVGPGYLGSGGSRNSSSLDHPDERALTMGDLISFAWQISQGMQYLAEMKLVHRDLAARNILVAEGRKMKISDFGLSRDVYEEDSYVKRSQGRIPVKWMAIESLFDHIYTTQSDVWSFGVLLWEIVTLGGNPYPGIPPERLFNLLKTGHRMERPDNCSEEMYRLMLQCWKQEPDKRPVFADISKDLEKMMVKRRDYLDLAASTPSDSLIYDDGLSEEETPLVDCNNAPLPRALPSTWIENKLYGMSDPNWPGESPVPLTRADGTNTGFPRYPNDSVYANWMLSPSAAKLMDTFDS
RET kinase, sequence (P07949 29-1114): as the sequence (P07949 29-1114 V804M) above, with M776V counted along it

By IC50 is commonly meant the point on the concentration scale where inhibition reaches its midpoint. As for `COc1ccc(CN2C3CC2CN(c2ccc(-c4cc(N5CCN(C)CC5)cn5ncc(C#N)c45)cn2)C3)cn1` [Trifluoroacetate of compound 18], the concentration for half-maximal inhibition (IC50) on RET kinase was determined as 0.46 nM. Moreover, the “TGI% (tumor volume at Day 23 after drug administration)” value (shortened to “TGI%”) in series [1] (10 mg/kg (D0-D17)/5 mg/kg (D18-D28) QD) was 91%.

`CN1CC=C(c2cc(-c3ccc(N4CCN(Cc5c(F)cccc5F)CC4)nc3)c3c(C#N)cnn3c2)C1` [Trifluoroacetate of compound 24]: the half-inhibitory concentration (IC50) is 1.1 nM against RET kinase and 8.43 nM against RET (V804M) kinase.

As to `CN1CC=C(c2cc(-c3ccc(N4CCN(Cc5c(F)cccc5F)CC4)nc3)c3c(C#N)cnn3c2)CC1` [Trifluoroacetate of compound 26], the half-inhibitory concentration (IC50) against RET kinase was determined as 3.82 nM; against RET (V804M) kinase, 22 nM.

`CCN1CC=C(c2cc(-c3ccc(N4CCN(Cc5c(F)cccc5F)CC4)nc3)c3c(C#N)cnn3c2)CC1` [Trifluoroacetate of compound 27]: the half-maximal inhibitory concentration (IC50) on RET kinase came to 4.37 nM; against RET (V804M) kinase, 33.6 nM.

On to `C[C@@H](C(=O)N1CCN(c2ccc(-c3cc(C4=CCOC4)cn4ncc(C#N)c34)cn2)CC1)c1ccccc1` [Trifluoroacetate of compound 28], for which the concentration for half-maximal inhibition (IC50) on RET kinase is 1.58 nM; against RET (V804M) kinase, 11.6 nM.

The bioavailability is the share of a dose that reaches the circulation, judged against a reference dose that is usually intravenous. Consider `COc1ccc(CN2C3CC2CN(c2cnc(-c4cc(C5=CCOCC5)cn5ncc(C#N)c45)cn2)C3)cn1` [Trifluoroacetate of compound 30], for which the bioavailability in series [2] was 96.4%. Moreover, the “TGI%” value in series [1] (setting [3]) is listed as 98%.

For the compound `COc1ccc(CN2C3CC2CN(c2ccc(-c4cc(C5=CCNCC5)cn5ncc(C#N)c45)cn2)C3)cn1` [Trifluoroacetate of compound 32], the values for the 50% inhibitory concentration (IC50) against RET kinase and at RET (V804M) kinase were 1.1 nM and 3.15 nM, respectively.

Turning to `COc1ccc(CN2C3CC2CN(c2ccc(-c4cc(C5=CCOCC5)cn5ncc(C#N)c45)cn2)C3)cn1` [Trifluoroacetate of compound 33], the IC50 against RET kinase is 1.47 nM; against RET (V804M) kinase, 7.43 nM.

As for `COc1ccc(CN2C3CC2CN(c2ccc(-c4cc(C5=CCC(O)CC5)cn5ncc(C#N)c45)cn2)C3)cn1` (stereo not drawn) [Trifluoroacetate of compound 39], the IC50 against RET kinase amounted to 0.67 nM; against RET (V804M) kinase, 2.27 nM.

In the case of `N#Cc1cnn2cc(N3CCCC3)cc(-c3ccc(N4CCC(C(=O)NC5CC(F)(F)C5)CC4)nc3)c12` [Trifluoroacetate of compound 58], the figures for the IC50 on RET kinase and at RET (V804M) kinase were 1.8 nM and 7.81 nM, respectively.

For `CC(C)(O)CNC(=O)C1CCN(c2ccc(-c3cc(N4CCCC4)cn4ncc(C#N)c34)cn2)CC1` [Trifluoroacetate of compound 60], the IC50 stood at 3.87 nM against RET kinase and 19.9 nM on RET (V804M) kinase.

Take `CO[C@H]1C[C@@H](NC(=O)C2CCN(c3ccc(-c4cc(N5CCCC5)cn5ncc(C#N)c45)cn3)CC2)C1` [Trifluoroacetate of compound 61]: the values for the IC50 at RET kinase and against RET (V804M) kinase were 1.77 nM and 8.85 nM, respectively.

As to `COc1ccc(CN2CCN(c3ccc(-c4cc(N5CCCC5)cn5ncc(C#N)c45)cn3)CC2)cn1` [Trifluoroacetate of compound 63], the results for the IC50 against RET kinase and against RET (V804M) kinase were 1.6 nM and 5.68 nM, respectively.

For `COc1ccc(CN2C3CC2CN(c2cnc(-c4cc(N5CC[C@H](F)C5)cn5ncc(C#N)c45)cn2)C3)cn1` [Trifluoroacetate of compound 66], the figures for the IC50 on RET kinase and at RET (V804M) kinase were 1.62 nM and 7.53 nM, respectively.

`COc1ccc(CN2C3CC2CN(c2cnc(-c4cc(N5CC[C@@H](F)C5)cn5ncc(C#N)c45)cn2)C3)cn1` [Trifluoroacetate of compound 67]: the concentration for half-maximal inhibition (IC50) was 1.09 nM on RET kinase and 1.6 nM at RET (V804M) kinase.

Turning to `COc1ccc(CN2C3CC2CN(c2ccc(-c4cc(N5CC[C@@H](F)C5)cn5ncc(C#N)c45)cn2)C3)cn1` [Trifluoroacetate of compound 68], the half-maximal inhibitory concentration (IC50) against RET kinase was 1.53 nM; against RET (V804M) kinase, 1.47 nM.

Broadly, the AUC(0-t) is the area under the concentration-time curve up to a stated or last time point. Low values mean low exposure, high ones high exposure. By Cmax is commonly meant the maximum level reached in the sampled fluid or tissue. The Tmax is the time at which the peak concentration occurs. In turn, `COc1ccc(CN2C3CC2CN(c2ccc(-c4cc(N5CCC(F)(F)C5)cn5ncc(C#N)c45)cn2)C3)cn1` [Trifluoroacetate of compound 69] registered an IC50 on RET kinase of 1.44 nM. Also, the IC50 at RET (V804M) kinase was 1.57 nM. Moreover, the AUC(0-t) in series [2] (intravenous injection (IV) 0.2 mg/kg) was determined as 3.87 µM·h. In series [2] (intravenous injection (IV) 0.2 mg/kg, read-out: Cl (plasma clearance)), the clearance is 1.3 mL/min/kg. For the same compound, in series [2] (intravenous injection (IV) 0.2 mg/kg, read-out: T1/2 (half-life of elimination) (converted)), the half-life was 3.6 h. Further, the Vd in series [2] (intravenous injection (IV) 0.2 mg/kg, read-out: Vdds (volume of distribution at steady state)) amounted to 0.42 L/kg. Besides, the bioavailability in series [2] was determined as 74.7%. Further, in series [2] (peros (PO) 2 mg/kg), the AUC(0-t) stood at 29.6 µM·h, the peak concentration (Cmax) was 3.63 µM and the Tmax was determined as 4 h. Also, the “TGI%” value in series [1] (setting [3]) turned out to be 99%.

As for `COc1ccc(CN2C3CC2CN(c2ccc(-c4cc(N5CCC(N(C)C)C5)cn5ncc(C#N)c45)cn2)C3)cn1` (stereo not drawn) [Triftuoroacelate of compound 72], the IC50 was found to be 6.6 nM against RET kinase and 12 nM against RET (V804M) kinase.

For the compound `N#Cc1cnn2cc(N3CCCC3)cc(-c3ccc(N4CCN(Cc5c(F)cccc5F)CC4)nc3)c12` [Triftuoroacetate of compound 57], the results for the half-maximal inhibitory concentration (IC50) at RET kinase and at RET (V804M) kinase were 1.98 nM and 8.11 nM, respectively.

Consider `COc1ccc(CN2C3CC2CN(c2cnc(-c4cc(N5CCCC5)cn5ncc(C#N)c45)cn2)C3)cn1` [Triftuoroacetate of compound 64], for which the half-inhibitory concentration (IC50) at RET kinase is 1.23 nM; against RET (V804M) kinase, 2.67 nM.

Consider `COc1ccc(CN2C3CC2CN(c2cnc(-c4cc(N5CCC(F)(F)C5)cn5ncc(C#N)c45)cn2)C3)cn1` [Trill uoroacetale of compound 65], for which the concentration for half-maximal inhibition (IC50) on RET kinase was determined as 0.66 nM; at RET (V804M) kinase, 2.6 nM.

The values above are taken from patent publication US12297197B2, “Pyrazolopyridine compound as RET inhibitor and application thereof” (GUANGZHOU BAIYUNSHAN PHARMACEUTICAL HOLDINGS CO., LTD. …, priority 2019, dated 2025).
